From patent US6737383B1, “Herbicidal oxadiazolidines” (priority 1999, dated 2004)

How the values were obtained:
pigweed = assay: Test B pre/postemergence pigweed; assay type: in vivo, Amaranthus retroflexus
How it was run: (§1)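 Test chemicals in a non-phytotoxic solvent mixture with surfactant were sprayed preemergence onto planted seeds and postemergence onto plants 2 to 18 cm tall (1- to 4-leaf stage). After twelve to sixteen days in a greenhouse, injury was visually rated against untreated controls from 0 (no effect) to 10 (complete control).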

rape = assay: Test B pre/postemergence rape; assay type: in vivo, Brassica napus
How it was run: as §1

soybean = assay: Test B pre/postemergence soybean; assay type: in vivo, Glycine max
How it was run: as §1

sugar beet = assay: Test B pre/postemergence sugar beet; assay type: in vivo, Beta vulgaris
How it was run: as §1

winter wheat [1] = assay: Test E winter wheat; assay type: in vivo, Triticum aestivum; settings: Postemergence; for Plant response rating, Wheat (winter): 0 to 100 scale, 0 is no effect, 100 is complete control
How it was run: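 Postemergence: 60:40 sandy loam/greenhouse potting mix, 1- to 4-leaf stage. Formulation: solvent plus surfactant. Assessment: visual comparison with untreated controls at ~21–28 days.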

guineagrass = assay: Test D guineagrass; assay type: in vivo, Panicum maximum; settings: Postemergence, 0 to 100 scale
Spanishneedles = assay: Test D Spanishneedles; assay type: in vivo, Bidens bipinnata
blackgrass = assay: Test E blackgrass; assay type: in vivo, Alopecurus myosuroides; settings: Preemergence
green foxtail [2] = assay: Test E green foxtail; assay type: in vivo, Setaria viridis; settings: Preemergence
Italian ryegrass = assay: Test E Italian ryegrass; assay type: in vivo, Lolium multiflorum; settings: Preemergence
winter wheat [3] = assay: Test E winter wheat; assay type: in vivo, Triticum aestivum; settings: Preemergence
wild oat = assay: Test E wild oat; assay type: in vivo, Avena fatua; settings: Preemergence
winter barley = assay: Test E winter barley; assay type: in vivo, Hordeum vulgare; settings: Preemergence
Green foxtail [4] = assay: Test D green foxtail; assay type: in vivo; settings: Postemergence, 0 to 100 scale, 0 no injury, 100 complete control
Green foxtail [5] = assay: Test D green foxtail; assay type: in vivo; settings: Postemergence, 0 to 100 scale, 0 no injury, 100 complete control; remark: listed apart in the source
[6] = Preemergence, Rate 62 g/ha, scale of 0 to 10 where 0 is no effect and 10 is complete control
[7] = Preemergence, Rate 250 g/ha, scale of 0 to 10 where 0 is no effect and 10 is complete control
[8] = Preemergence, Rate 500 g/ha, scale of 0 to 10 where 0 is no effect and 10 is complete control
[9] = Rate 62 g/ha, Postemergence, scale of 0 to 10 where 0 is no effect and 10 is complete control
[10] = Rate 125 g/ha, Preemergence, scale of 0 to 10 where 0 is no effect and 10 is complete control
[11] = Rate 500 g/ha, Postemergence, scale 0 to 10, 0 no effect, 10 complete control
[12] = Rate 16 g/ha, 0 no injury, 100 complete control
[13] = Rate 32 g/ha, 0 no injury, 100 complete control
[14] = Rate 64 g/ha, 0 no injury, 100 complete control
[15] = Rate 125 g/ha, 0 no injury, 100 complete control
[16] = Rate 16 g/ha; Postemergence; 0 to 100 scale, 0 no injury, 100 complete control
[17] = Rate 64 g/ha, Postemergence; 0 to 100 scale, 0 no injury, 100 complete control
[18] = Rate 125 g/ha, Postemergence; 0 to 100 scale, 0 no injury, 100 complete control
[19] = Rate 250 g/ha; Postemergence; 0 to 100 scale
[20] = Rate 125 g/ha, 0 to 100 scale (0 no effect, 100 complete control)
[21] = Rate 500 g/ha, 0 to 100 scale where 0 is no effect and 100 is complete control
[22] = Postemergence, Rate 125 g/ha, scale 0 to 10, 0 is no effect, 10 is complete control
[23] = Postemergence, Rate 250 g/ha, scale 0 to 10, 0 is no effect, 10 is complete control
[24] = Preemergence, Rate 62 g/ha, scale 0 to 10 (0 no effect, 10 complete control)

CC(C)N(C(=O)n1oc(=O)n(C2CC2)c1=O)c1ccccc1 [Compound 243] was tested, and the “Redroot pigweed plant response rating” value (pigweed; [6]) was 6, the “Redroot pigweed plant response rating” value (pigweed; [7]) was 10 and the “Plant response rating, Redroot pigweed” value (pigweed; [8]) was 10. The “Redroot pigweed plant response rating” value (pigweed; [9]) was 2, the “Redroot pigweed plant response rating” value (pigweed; [10]) was 9 and the “Plant response rating (0 to 10; 0 is no effect, 10 is complete control), Redroot pigweed” value (pigweed; Rate 250 g/ha, Postemergence) was 7. The “Redroot pigweed plant response rating” value (pigweed; [11]) was 7, the “Rape plant response rating” value (rape; [6]) was 0 and the “Rape plant response rating” value (rape; [7]) was 9. For the same compound, the “Plant response rating, Rape” value (rape; [8]) was 10, the “Rape plant response rating” value (rape; [9]) was 0 and the “Rape plant response rating” value (rape; [10]) was 5. For the same compound, the “Plant response rating (0 to 10; 0 is no effect, 10 is complete control), Rape” value (rape; Rate 250 g/ha, Postemergence) was 2, the “Rape plant response rating” value (rape; [11]) was 3 and the “Soybean plant response rating” value (soybean; [6]) was 0. For the same compound, the “Soybean plant response rating” value (soybean; [7]) was 8, the “Plant response rating, Soybean” value (soybean; [8]) was 9 and the “Soybean plant response rating” value (soybean; [9]) was 3. For the same compound, the “Soybean plant response rating” value (soybean; [10]) was 0, the “Soybean plant response rating” value (soybean; [11]) was 8 and the “Sugarbeets plant response rating” value (sugar beet; [6]) was 2. For the same compound, the “Sugarbeets plant response rating” value (sugar beet; [7]) was 7, the “Plant response rating, Sugarbeets” value (sugar beet; [8]) was 10 and the “Sugarbeets plant response rating” value (sugar beet; [9]) was 0. For the same compound, the “Sugarbeets plant response rating” value (sugar beet; [10]) was 3, the “Sugarbeets plant response rating” value (sugar beet; [11]) was 5 and the “Plant response rating, Wheat (winter)” value (winter wheat [1]; Rate 125 g/ha) was 70. For the same compound, the “Wheat (winter) plant response rating” value (winter wheat [1]; Rate 250 g/ha, 0 to 100 scale where 0 is no effect and 100 is complete control) was 75, the “Plant response rating, Wheat (winter)” value (winter wheat [1]; Rate 500 g/ha) was 80 and the “Plant response rating, Guineagrass” value (guineagrass; [12]) was 0. The “Plant response rating, Guineagrass” value (guineagrass; [13]) was 0, the “Guineagrass plant response rating” value (guineagrass; [14]) was 0 and the “Plant response rating, Guineagrass” value (guineagrass; [14]) was 20. The “Plant response rating, Guineagrass” value (guineagrass; [15]) was 100, the “Plant response rating, Guineagrass” value (guineagrass; Rate 250 g/ha) was 100 and the “Plant response rating, Spanishneedles” value (Spanishneedles; Postemergence; Rate 32 g/ha; 0 to 100 scale, 0 no injury, 100 complete control) was 50. For the same compound, the “Plant response rating, Spanishneedles” value (Spanishneedles; [16]) was 0, the “Plant response rating, Spanishneedles” value (Spanishneedles; Rate 32 g/ha; Postemergence; 0 to 100 scale, 0 no injury, 100 complete control) was 0 and the “Spanishneedles plant response rating” value (Spanishneedles; [17]) was 50. For the same compound, the “Spanishneedles plant response rating” value (Spanishneedles; [18]) was 20, the “Plant response rating, Spanishneedles” value (Spanishneedles; [19]) was 100 and the “Plant response rating, Blackgrass” value (blackgrass; [20]) was 65. For the same compound, the “Blackgrass plant response rating (0 to 100 scale)” value (blackgrass; Rate 250 g/ha) was 85, the “Plant response rating, Blackgrass” value (blackgrass; [21]) was 100 and the “Plant response rating, Green foxtail” value (green foxtail [2]; [20]) was 75. The “Green foxtail plant response rating (0 to 100 scale)” value (green foxtail [2]; Rate 250 g/ha) was 100, the “Plant response rating, Green foxtail” value (green foxtail [2]; [21]) was 100 and the “Plant response rating, I. Ryegrass” value (Italian ryegrass; [20]) was 70. For the same compound, the “I. Ryegrass plant response rating (0 to 100 scale)” value (Italian ryegrass; Rate 250 g/ha) was 85, the “Plant response rating, I. Ryegrass” value (Italian ryegrass; [21]) was 100 and the “Plant response rating, Wheat (winter)” value (winter wheat [3]; [20]) was 50. For the same compound, the “Wheat (winter) plant response rating (0 to 100 scale)” value (winter wheat [3]; Rate 250 g/ha) was 70, the “Plant response rating, Wheat (winter)” value (winter wheat [3]; [21]) was 75 and the “Plant response rating, Wild oat” value (wild oat; [20]) was 60. For the same compound, the “Wild oat plant response rating (0 to 100 scale)” value (wild oat; Rate 250 g/ha) was 55, the “Plant response rating, Wild oat” value (wild oat; [21]) was 90 and the “Plant response rating, Barley (winter)” value (winter barley; [20]) was 30. The “Barley (winter) plant response rating (0 to 100 scale)” value (winter barley; Rate 250 g/ha) was 60, the “Plant response rating, Barley (winter)” value (winter barley; [21]) was 70 and the “Green foxtail plant response rating” value (Green foxtail [4]; Rate 64 g/ha) was 100. For the same compound, the “Green foxtail plant response rating” value (Green foxtail [4]; Rate 125 g/ha) was 100, the “Plant response rating, Green foxtail” value (Green foxtail [5]; Rate 16 g/ha) was 10 and the “Plant response rating, Green foxtail” value (Green foxtail [5]; Rate 32 g/ha) was 100.

For CC(C)N(C(=O)n1oc(=O)n(C2(C)CC2)c1=O)c1ccccc1 [Compound 360], the “Plant response rating, Redroot pigweed” value (pigweed; [22]) was 0, the “Plant response rating, Redroot pigweed” value (pigweed; [23]) was 3 and the “Plant response rating, Redroot pigweed” value (pigweed; [24]) was 5. For the same compound, the “Redroot pigweed plant response rating (0 to 10 scale)” value (pigweed; Preemergence, Rate 125 g/ha) was 5, the “Redroot pigweed plant response rating” value (pigweed; [7]) was 10 and the “Redroot pigweed plant response rating” value (pigweed; [8]) was 10. The “Redroot pigweed plant response rating” value (pigweed; [9]) was 0, the “Plant response rating, Redroot pigweed” value (pigweed; [11]) was 6 and the “Plant response rating, Rape” value (rape; [22]) was 0. For the same compound, the “Plant response rating, Rape” value (rape; [23]) was 0, the “Plant response rating, Rape” value (rape; [24]) was 0 and the “Rape plant response rating (0 to 10 scale)” value (rape; Preemergence, Rate 125 g/ha) was 0. The “Rape plant response rating” value (rape; [7]) was 0, the “Rape plant response rating” value (rape; [8]) was 0 and the “Rape plant response rating” value (rape; [9]) was 0. The “Plant response rating, Rape” value (rape; [11]) was 0, the “Plant response rating, Soybean” value (soybean; [22]) was 2 and the “Plant response rating, Soybean” value (soybean; [23]) was 2. For the same compound, the “Plant response rating, Soybean” value (soybean; [24]) was 0, the “Soybean plant response rating (0 to 10 scale)” value (soybean; Preemergence, Rate 125 g/ha) was 0 and the “Soybean plant response rating” value (soybean; [7]) was 0. The “Soybean plant response rating” value (soybean; [8]) was 5, the “Soybean plant response rating” value (soybean; [9]) was 1 and the “Plant response rating, Soybean” value (soybean; [11]) was 3. For the same compound, the “Plant response rating, Sugarbeets” value (sugar beet; [22]) was 0, the “Plant response rating, Sugarbeets” value (sugar beet; [23]) was 2 and the “Plant response rating, Sugarbeets” value (sugar beet; [24]) was 2. The “Sugarbeets plant response rating (0 to 10 scale)” value (sugar beet; Preemergence, Rate 125 g/ha) was 6, the “Sugarbeets plant response rating” value (sugar beet; [7]) was 6 and the “Sugarbeets plant response rating” value (sugar beet; [8]) was 7. For the same compound, the “Sugarbeets plant response rating” value (sugar beet; [9]) was 0, the “Plant response rating, Sugarbeets” value (sugar beet; [11]) was 7 and the “Plant response rating, Guineagrass” value (guineagrass; [12]) was 0. For the same compound, the “Plant response rating, Guineagrass” value (guineagrass; [13]) was 100, the “Guineagrass plant response rating” value (guineagrass; [14]) was 100 and the “Plant response rating, Guineagrass” value (guineagrass; [15]) was 100. The “Plant response rating, Guineagrass” value (guineagrass; Rate 250 g/ha) was 100, the “Plant response rating, Spanishneedles” value (Spanishneedles; [16]) was 0 and the “Spanishneedles plant response rating” value (Spanishneedles; [17]) was 0. The “Spanishneedles plant response rating” value (Spanishneedles; [18]) was 0, the “Plant response rating, Spanishneedles” value (Spanishneedles; [19]) was 20 and the “Green foxtail plant response rating” value (Green foxtail [4]; Rate 64 g/ha) was 100. The “Green foxtail plant response rating” value (Green foxtail [4]; Rate 125 g/ha) was 100, the “Plant response rating, Green foxtail” value (Green foxtail [5]; Rate 16 g/ha) was 0 and the “Plant response rating, Green foxtail” value (Green foxtail [5]; Rate 32 g/ha) was 70.
